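Where inhibition never reached the appropriate level, the endpoint shown equals the highest concentration tested. Otherwise, values were interpolated linearly from a five-concentration, 48-hour dose response in 96-well plates. TGI marks complete inhibition of growth.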

Some test systems named below: A549 NSCLC; HCT-15 colon; IGROV1 ovarian; NCI-H23 lung; OVCAR-3 ovarian; SK-MEL-28 melanoma; SK-OV-3 ovarian; UACC-62 melanoma; UO-31 renal.
What all share (assay): growth of human tumour cells (NCI), 48 h

For `Cc1cccc(NC(=O)C(=O)C(C(=O)c2ccc3ccccc3c2)C2OC(=O)c3ccccc32)c1C` (stereo not drawn), the TGI was found to be 69.2 µM in the assay with A549 NSCLC; 41.9 µM in the assay on HCT-15 colon; 57.7 µM with IGROV1 ovarian; 59.1 µM with NCI-H23 lung; 50.1 µM in the assay on OVCAR-3 ovarian; 39 µM in the assay with SK-MEL-28 melanoma. Moreover, the results for the TGI in the assay on SK-OV-3 ovarian, in the assay on UACC-62 melanoma and with UO-31 renal were 54.4 µM, 22.5 µM and 35.7 µM, respectively.
Consider `CC1(C)SCc2nc3ncccc3n21`, for which the TGI in the assay with A549 NSCLC, in the assay on HCT-15 colon, with IGROV1 ovarian, with NCI-H23 lung, in the assay on OVCAR-3 ovarian and in the assay on SK-MEL-28 melanoma was greater than 100 µM each time. Moreover, the TGI with SK-OV-3 ovarian, with UACC-62 melanoma and in the assay with UO-31 renal was greater than 100 µM throughout.
In the case of `COc1cc(C(C)O)c[n+](CCc2c[nH]c3ccccc23)c1` (stereo not drawn), the TGI in the assay with A549 NSCLC, in the assay on HCT-15 colon, in the assay with IGROV1 ovarian, in the assay on NCI-H23 lung, in the assay with OVCAR-3 ovarian and in the assay on UACC-62 melanoma was greater than 100 µM in each case. Besides, the TGI in the assay on UO-31 renal is greater than 100 µM.
`CC(C)(C)c1ccc2c(c1)S(=O)(=O)Nc1ccccc1NS(=O)(=O)c1cc(C(C)(C)C)ccc1OCCOCCOCCO2`: the TGI with A549 NSCLC, in the assay on HCT-15 colon, in the assay on IGROV1 ovarian, with NCI-H23 lung, with OVCAR-3 ovarian and in the assay with SK-MEL-28 melanoma was greater than 100 µM each time. Besides, the TGI in the assay on SK-OV-3 ovarian, in the assay with UACC-62 melanoma and with UO-31 renal was greater than 100 µM in each case.
For `CCOC(=O)CC1(C(=O)OCC)c2[nH]c3ccccc3c2CCN1Cc1ccccc1` (stereo not drawn), the TGI is 40.3 µM with A549 NSCLC; greater than 100 µM in the assay with HCT-15 colon; 52.9 µM in the assay with IGROV1 ovarian; 33 µM in the assay with NCI-H23 lung; 27.4 µM in the assay on OVCAR-3 ovarian; 39.4 µM in the assay on SK-MEL-28 melanoma. Besides, the TGI in the assay with SK-OV-3 ovarian is greater than 100 µM; in the assay on UACC-62 melanoma, 32.2 µM; with UO-31 renal, 64.1 µM.
`COC1(OC)C2(Cl)C(Cl)=C(Cl)C1(Cl)C1C=CC=CC12` (stereo not drawn): the TGI in the assay with A549 NSCLC, in the assay with HCT-15 colon, in the assay on IGROV1 ovarian, with NCI-H23 lung, in the assay on OVCAR-3 ovarian and in the assay with SK-MEL-28 melanoma was greater than 100 µM each time. Moreover, the TGI in the assay with SK-OV-3 ovarian, in the assay with UACC-62 melanoma and in the assay on UO-31 renal was greater than 100 µM each time.
For `CC1(C)C(=O)N(CCCCCCN2C(=O)C(C)(C)c3ccccc32)c2ccccc21`, the TGI in the assay with A549 NSCLC is greater than 100 µM; in the assay with HCT-15 colon, greater than 100 µM; with IGROV1 ovarian it was greater than 100 µM; in the assay on NCI-H23 lung, greater than 100 µM; in the assay with OVCAR-3 ovarian, 77.8 µM; in the assay on SK-MEL-28 melanoma it was greater than 100 µM. For the same molecule, the TGI was greater than 100 µM in the assay on SK-OV-3 ovarian, 79.8 µM in the assay with UACC-62 melanoma and 92.6 µM in the assay with UO-31 renal.
Consider `NC(N)=N/N=C(\c1nc2ccc([N+](=O)[O-])cc2[nH]c1=O)C(O)c1ccc([N+](=O)[O-])cc1` (stereo not drawn), for which the TGI in the assay with A549 NSCLC, in the assay on HCT-15 colon, in the assay with IGROV1 ovarian, in the assay with NCI-H23 lung, in the assay with OVCAR-3 ovarian and in the assay with SK-MEL-28 melanoma was greater than 100 µM each time. In addition, the TGI in the assay with SK-OV-3 ovarian, with UACC-62 melanoma and with UO-31 renal was greater than 100 µM each time.
For the molecule `Cc1cn(C2CC(O)C(CO)O2)c(=O)n2nnnc12` (stereo not drawn), the TGI with A549 NSCLC, in the assay on HCT-15 colon, in the assay on IGROV1 ovarian, in the assay with NCI-H23 lung, with OVCAR-3 ovarian and in the assay on SK-MEL-28 melanoma was greater than 100 µM each time. Also, the TGI in the assay on SK-OV-3 ovarian, with UACC-62 melanoma and in the assay on UO-31 renal was greater than 100 µM throughout.
For the molecule `COC(=O)/C(=N\Nc1nnc(C)n1N)C(C#N)c1ccc(Cl)cc1` (stereo not drawn), the TGI with A549 NSCLC, with HCT-15 colon, with IGROV1 ovarian, in the assay with NCI-H23 lung, in the assay on OVCAR-3 ovarian and in the assay with SK-MEL-28 melanoma was greater than 100 µM each time. In addition, the TGI in the assay with SK-OV-3 ovarian, in the assay with UACC-62 melanoma and in the assay on UO-31 renal was greater than 100 µM each time.
On to `CS/C(N)=N\NC(=O)CCC(=O)Nc1ccccc1C(F)(F)F`, for which the TGI in the assay with A549 NSCLC, in the assay on HCT-15 colon, with IGROV1 ovarian, with NCI-H23 lung, in the assay on OVCAR-3 ovarian and in the assay on SK-MEL-28 melanoma was greater than 100 µM each time. For the same molecule, the TGI in the assay on SK-OV-3 ovarian, in the assay on UACC-62 melanoma and in the assay with UO-31 renal was greater than 100 µM throughout.
Take `C[C@@H]1CC(=O)C2CCCC1C2=O` (stereo partly drawn): the TGI with A549 NSCLC, in the assay on HCT-15 colon, in the assay on IGROV1 ovarian, with OVCAR-3 ovarian, in the assay with SK-MEL-28 melanoma and in the assay on SK-OV-3 ovarian was greater than 100 µM each time. Moreover, the TGI in the assay with UACC-62 melanoma and with UO-31 renal was greater than 100 µM each time.
With `O=C1CCN2C(=O)CCN12`, the TGI in the assay with A549 NSCLC, with NCI-H23 lung, with OVCAR-3 ovarian, with SK-MEL-28 melanoma, in the assay on SK-OV-3 ovarian and with UACC-62 melanoma was greater than 100 µM each time. Moreover, the TGI in the assay with UO-31 renal is greater than 100 µM.
Turning to `Cc1ccc(C2=C(c3ccccc3)C(Br)(c3ccc(C)cc3)C(c3ccccc3)=C2c2ccc(C)cc2)cc1`, the TGI with A549 NSCLC, in the assay on HCT-15 colon, in the assay with IGROV1 ovarian, in the assay on NCI-H23 lung, with OVCAR-3 ovarian and in the assay with SK-MEL-28 melanoma was greater than 100 µM throughout. The TGI with SK-OV-3 ovarian and in the assay on UACC-62 melanoma was greater than 100 µM in each case.
With `Nn1c(=O)n(Cc2ccccc2)n(-c2ccccc2)c1=O`, the TGI with A549 NSCLC, in the assay on IGROV1 ovarian, with NCI-H23 lung, with OVCAR-3 ovarian, with SK-MEL-28 melanoma and in the assay on SK-OV-3 ovarian was greater than 100 µM each time. Besides, the TGI in the assay with UACC-62 melanoma and in the assay on UO-31 renal was greater than 100 µM throughout.

Source of the values: PubChem BioAssay (NCI).
